Assay results reported in patent publication US10370404B2, “Protoescigenin derivative, process of its preparation, use of said compound and pharmaceutical composition comprising that compound” (Warszawski Uniwersytet Medyczny, priority 2015, dated 2019).

How the values were obtained:
[1] = test system: Human Umbilical Vein Endothelial Cells (HUVEC); test: HUVEC in vitro vascular permeability assay; type: cell-based; conditions: 2 μM for 24 h; rhTNF-α for the last 6 h
Procedure: (§1) Human Umbilical Vein Endothelial Cells (HUVEC) were cultured in the EBM-2 (Lonza) supplemented with endothelial growth supplement mix (EGM-2 SingleQuot Kit Supplements and Growth Factors, Lonza) and 2% foetal bovine serum under standard cell culture condition (37° C., 5% CO2). Cells were harvested using Accutase (PAA Laboratories). All described experiments were performed with cells of passage four from at least three donors. The cells were treated with the compound of the invention at 2 μM for 24 h with or without an additional of 6 h stimulation of recombinant human TNF-α (rhTNF-α, 10 ng/ml, R&D Systems).
The In Vitro Vascular Permeability Assay Kit (Chemicon) was used to determine HUVEC monolayer permeability. All the steps of the procedure were performed according to the manufacturer's instructions.
The In Vitro Vascular Permeability Assay Kit (Chemicon) was used to determine HUVEC monolayer permeability following 24 h treatment of the compound of the invention at 2 μM concentrations. The effect of rhTNF-α (R&D Systems), which was added to cell culture for the last 6 h of the incubation period, was also determined. The subsequent steps of the procedure were performed according to the manufacturer's instructions.

[2] = Biochemical analysis of the serum samples; type: in vivo, rat; conditions: control and experimental rats; sodium salt 10 mg/ml oral gavage, 4 weeks
Procedure: (§2) The rats in sub-groups receiving compound of the invention were treated for 4 weeks with the compound of the invention (E-38) in form of sodium salt (10 mg/ml, 13.7 mM) administered by oral gavage.
After 4 weeks, rats were sacrificed and measurements were conducted. Non-operated rats were fed during the whole experiment. Blood samples for serum analysis were collected before the animals were sacrificed. Biochemical analysis of the blood samples was conducted using biochemical analyzer Cobas 6000 (Roche, Hitachi).
In order to verify whether the administration of the compound of the invention results in any toxic effects influence in tested rats, the inventors conducted a set of basic biochemical tests of the serum isolated from the blood samples obtained from the control and experimental rats.
The conducted blood serum test included following parameters: glucose (GLUC), creatinin (CREA), urea (UREA), total protein (TP), uric acid (UA), amylase (AMYL), albumin (ALB), cholesterol (CHOL), triglicerides (TRIG), lipase (LIP), aspartate aminotransferase (AST), alanine aminotransferase (ALT), creatine kinase (CK).

[3] = test system: male Wistar rats (un-operated control group); test: Un-operated control rats: thigh circumference, muscle weight, femoral bone length; type: in vivo, rat; conditions: sodium salt 10 mg/ml oral gavage, 4 weeks
Procedure: (§3) The below experiments were performed on male Wistar rats, at the age of 8-10 weeks, divided into two groups: the experimental group with surgically created side-to-side arterio-venous fistula between common femoral vessels (n=23) and a control group of un-operated animals (n=10). The experiment was approved by the local Bioethics Commission for experiments on animals, Warsaw 02-091, Żwirki i Wigury 61 (resolutions nr 11/2009 dated Jun. 23, 2009 and 46/12 dated Sep. 25, 2012).
Rats in the control group were also divided into two sub-groups, receiving no treatment (n=6) and receiving the compound of the invention (n=4). These animals were not subjected to any surgical procedure.
as §2
(§4) After 4 weeks, rats were sacrificed and measurements were conducted. Non-operated rats were fed during the whole experiment. Blood samples for serum analysis were collected before the animals were sacrificed. […]
(§5) After euthanasia, measurements of thigh circumference limbs of animals of the experimental and control groups were performed. […] Femoral bones were excised and their length was measured with an electronic slide clipper.
(§6) The results were expressed as arithmetic means and standard errors of the mean (SEM). […]

[4] = test system: male Wistar rats with surgically created side-to-side arterio-venous fistula between common femoral vessels; test: Rat arteriovenous fistula model of Parkes Weber syndrome: thigh circumference, muscle weight, femoral bone length; type: in vivo; conditions: sodium salt 10 mg/ml oral gavage, 4 weeks
Procedure: as §3
Rats in experimental group were divided into two sub-groups, receiving no treatment (n=14) and receiving compound of the invention (n=9). Each animal was subjected to following surgical operations.
After induction of general anesthesia longitudinal skin incision just below inguinal ligament was performed. […] After application of micro-vascular clamps on common femoral vessels longitudinal 2 mm±0.1 mm long incision on antero-lateral side of the vein and antero-medial side of the artery were performed. Afterwards side-to-side anastomosis between common femoral vessels was performed to create arteriovenous fistula (non-absorbable monofilament suture 10/0). Subsequently micro-vascular clamps were removed and arteriovenous fistula patency was checked and haemostasis was achieved. […] The resultant vein lumen corresponded to approximately 80-90% of the initial vein lumen. Next, subcutaneous tissue and skin were sutured with absorbable suture.
The above procedure results in obtaining an animal model of Parkes Weber syndrome, described in the European patent application EP14001527. Hereinafter, these limbs are referred to as AVF limbs.
The operation of the right hind limb (control limb) included skin incision, common femoral vessels dissection, and subcutaneous and skin suture (absorbable suture). Hereinafter, these limbs are referred to as sham-operated limbs.
Animals were fed for 1 week, than surgical procedures were conducted. After the operation, animals were fed and treated with the compound of the invention.
as §2, §4, §5, §6

[5] = test system: Human Umbilical Vein Endothelial Cells (HUVEC); test: HUVEC cell migration assay; type: cell-based; conditions: 2 μM; rhTNF-α 10 ng/ml
Procedure: as §1
The rate of cell migration was measured with the Angiogenesis System: Endothelial Cell Migration (BD Biosciences) strictly according to the manufacturer's instructions.
The rate of cell migration was measured with Angiogenesis System: Endothelial Cell Migration (BD Biosciences). Briefly, 90% confluent HUVEC were incubated with the compound of the invention at 2 μM concentration in a complete culture medium for 24 h, then starved for 4 h in a medium containing 0.1% serum. Following seeing on migration inserts ([…] in 250 μl of media containing the compound of the invention) HUVEC were stimulated with rhTNF-α (10 ng/ml, R&D Systems). […]

[6] = left hind (AVF) limbs vs experimental group with no treatment

CC1(C)C[C@H]2C3=CCC4[C@@]5(C)CC[C@H](O)[C@](C)(CO)C5CC[C@@]4(C)[C@]3(C)C[C@@H](O)[C@@]2(COCc2cn(-c3ccc(C(=O)O)cc3)nn2)[C@@H](O)[C@@H]1O (some centres unmarked) [compound of the invention]
TNF-α-induced endothelial cells permeability [1]: significantly decreased | influence on blood serum parameters (GLUC, CREA, UREA, TP, UA, AMYL, ALB, CHOL, TRIG, LIP, AST, ALT, CK) [2]: no significant influence | influence on measured parameters (thigh circumference, EDL and SOL muscle weight, femoral bone length) [3]: insignificant influence | effect on measured parameters (thigh circumference, EDL and SOL muscle weight, femoral bone length) ([4]; AVF rats): reduction of the measured parameters to a very significant extent | reduction of EDL muscle weight [4, 6]: approx. 59.2% | reduction of SOL muscle weight [4, 6]: approx. 63.6% | reduction of thigh circumference [4, 6]: approx. 12.5% | TNF-α-induced cell migration [5]: reduced
